Like-named read-outs stand apart in the source and are kept apart here. Bounds are passed on as bounds.

The values that follow come from patent publication US5733917A, “Heterocyclic compound” (Taisho Pharmaceutical Co., Ltd., priority 1994, dated 1998).

Data set [1] concerns the target T1, serotonin 4 receptor (Cavia porcellus, UniProt O70528).
T1 construct: from tissue; host or cells: ileum longitudinal muscle strips of Hartley guinea pigs
The data set can be described thus: Stimulating action test on serotonin 4 receptor: twitch responses in electrically stimulated longitudinal muscle strips of guinea pig ileum. It is filed as cell-based, guinea pig (Hartley). From the text: Stimulating Action Test on Serotonin 4 Receptor Test Drugs
Test Drug 1: Compound 1 of the present invention
Test Drug 2: The compound described in Japanese Patent Kokai No. 3-197462 represented by the following formula: [drawing 5]
Test Drug 3: The compound described in Japanese Patent Kokai No. 4-226980 represented by the following formula: [drawing 6]
Twitch responses were examined in longitudinal muscle strips of guinea pig according to a modification of the method described in The Journal of Pharmacology and Experimental Therapeutics, vol. 252, page 1378, 1990.
From Hartley guinea pigs, a section of ileum 25 cm in length and proximal to the ileocecal junction was removed. The longitudinal muscle strips obtained from two segments of ileum about 4 cm each in length were used for this test. The longitudinal muscle strips were suspended in Kreb's solution at 32° to 34° C. and bubbled with 95% O2 and 5% CO2 under a load of about 0.8 g. The responses were recorded under an electrical stimulation of 0.2 Hz, 1 msec pulse duration, using force displacement transducers. The longitudinal muscle strips were allowed to stand at supramaximal voltage for about an hour, and thereby were stable. After it was confirmed that the twitch responses were enhanced by 10^-8 M 5-HT, each test drug was examined on its activity for twitch responses. The test was carried out by exposing the strips to cumulative additions of the test drug at least at 45 minute intervals.

Data set [2] concerns gastrointestinal motor. The data set can be described thus: Action on gastrointestinal motor in dogs (strain gauge force transducers, motility index). It is filed as in vivo, Beagle dogs. The following applies: for Motility Index: dog, gastric motor after feeding. The method, then: Action on Gastrointestinal Motor in Dogs
The test was carried out by a modification of the method described in Gastroenterologia Japonica, vol. 12, page 275, 1977.
Beagle dogs of both sexes weighing 9 to 15 kg were anesthetized with sodium pentobarbital and strain gauge force transducers were sutured on 5 portions, i.e. for determining antral, duodenum, jejunal, ileal and colonel motor responses. A cannula for administering a drug was mounted persistently into the jugular vein. After recovery of the surgery, motor responses of the dog under no-anesthesia without restriction at those portions on the gastrointestinal tract in both during a fasting period and after feeding were determined in the conscious […].
(§1) The compound of the present invention was administered after dissolving in saline aqueous solution.
The motor index is shown in terms of a proportion (%) of a mean value calculated for 15 minutes to a value prior to administration (0 minute). The value for 0 minute was made a mean value for 30 minutes prior to the administration.
Tables 2 and 3 show the activity of the compound of the present invention in doses of 0.3 mg/kg for intravenous route and 1 mg/kg for oral route, respectively, on the gastric motor action after feeding.

The subject of data set [3] is gastric emptying. Description: Action on gastric emptying in rats (clonidine-treated, residual rate of glass balls in stomach). Type of data set: in vivo, Male wistar rats. The following applies: rat; for Residual rate in Stomach: relative to clonidine hydrochloride-treated animal. The method, then:
Action on Gastric Emptying in Rats
The test was carried out by a modification of the method described in British Journal of Pharmacology, vol. 91, page 263, 1987.
Male wistar rats weighing 170 to 220 g were used after fasting for 24 hours.
Clonidine hydrochloride of 30 μg/kg was administered subcutaneously, and after 30 minutes the compound of the present invention was administered subcutaneously. After 30 minutes 1 ml of glass balls (500 mg/ml) was administered orally. After 30 minutes the glass balls remained in the stomach were recovered and weighed to determine the rate [residual rate in stomach (%)] to the residual amount in the stomach of the clonidine hydrochloride-treated animal.
as §1

A short description of data set [4]: Toxicity examination of mouse single administration (acute toxicity). The following applies: in vivo, single oral administration, read-out: LD value. The method, then:
With respect to toxicity of Compound (1) represented by Formula (I) which is an effective ingredient of the pharmaceutical composition of the present invention, as a result of the toxicity examination of mouse single administration (acute toxicity), the LD value is more than 500 mg/kg by oral administration.

The subject of data set [5] is serotonin 4 receptors. The following applies: stimulants of serotonin 4 receptors; Alimentary Pharmacology and Therapeutics, vol. 6, page 273, 1992; cited from earlier work.
[6] abbreviates: guinea pig ileum longitudinal muscle strips, electrical stimulation 0.2 Hz, 1 msec, cumulative additions at least at 45 minute intervals, read-out: ED50 (the source's name).

T1 sequence (O70528 whole entry): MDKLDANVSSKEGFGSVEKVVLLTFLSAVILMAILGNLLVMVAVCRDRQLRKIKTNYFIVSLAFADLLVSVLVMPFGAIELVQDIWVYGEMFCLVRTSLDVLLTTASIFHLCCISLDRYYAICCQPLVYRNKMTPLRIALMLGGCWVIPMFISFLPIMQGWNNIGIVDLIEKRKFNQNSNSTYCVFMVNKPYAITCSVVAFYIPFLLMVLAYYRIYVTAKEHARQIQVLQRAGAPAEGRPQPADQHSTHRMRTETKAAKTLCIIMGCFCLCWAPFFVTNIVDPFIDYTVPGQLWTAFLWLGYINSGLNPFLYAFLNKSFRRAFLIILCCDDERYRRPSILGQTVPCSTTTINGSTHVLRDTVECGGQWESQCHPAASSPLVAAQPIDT

For the compound `CCCCn1c(=O)c(C(=O)N[C@H]2C[C@H]3CC[C@@H](C2)N3C)c(O)c2ccccc21` [Test Drug 3], the EC50 in data set [1] (setting [6]) was > 3 µM.

Regarding `NCCc1c[nH]c2ccc(O)cc12` [Compound 5-HT], the twitch responses entry in data set [1] (10^-8 M 5-HT, confirmation before test drug) is “enhanced”.

In the case of `CC(C)n1c(=O)c(C(=O)O[C@H]2C[C@H]3CC[C@@H](C2)N3C)cc2ccccc21` [Compound (1), endo-(8-methyl-8-azabicyclo[3.2.1]oct-3-yl) 1-isopropyl-2(1H)-quinolone-3-carboxylate], the EC50 in data set [1] came out at 0.0213 µM. Moreover, the “Motility Index” value in data set [2] (intravenous 0.3 mg/kg, 0 min (value prior to administration, = 100), N = 3) turned out to be 100%; in data set [2] (intravenous 0.3 mg/kg, 15 min, N = 3, p < 0.05), 247.8%; in data set [2] (intravenous 0.3 mg/kg, 30 min, N = 3, p < 0.01), 219.8%; in data set [2] (intravenous 0.3 mg/kg, 45 min, N = 3, p < 0.01), 178.8%; in data set [2] (intravenous 0.3 mg/kg, 60 min, N = 3, p < 0.01), 162.3%; in data set [2] (intravenous 0.3 mg/kg, 75 min, N = 3, p < 0.001), 181.0%. For the same compound, the “Motility Index” value in data set [2] (intravenous 0.3 mg/kg, 90 min, N = 3) amounted to 166.7%; in data set [2] (intravenous 0.3 mg/kg, 105 min, N = 3), 150.1%; in data set [2] (intravenous 0.3 mg/kg, 120 min, N = 3), 123.5%; in data set [2] (oral 1 mg/kg, 0 min (value prior to administration, = 100), N = 3), 100%; in data set [2] (oral 1 mg/kg, 15 min, N = 3), 179.5%; in data set [2] (oral 1 mg/kg, 30 min, N = 3), 238.6%. Also, the “Motility Index” value in data set [2] (oral 1 mg/kg, 45 min, N = 3) is reported as 295.0%; in data set [2] (oral 1 mg/kg, 60 min, N = 3) it was 238.8%; in data set [2] (oral 1 mg/kg, 75 min, N = 3), 252.3%; in data set [2] (oral 1 mg/kg, 90 min, N = 3) it was 193.9%; in data set [2] (oral 1 mg/kg, 105 min, N = 3), 251.7%; in data set [2] (oral 1 mg/kg, 120 min, N = 3), 257.8%. The “Motility Index” value in data set [2] (oral 1 mg/kg, 135 min, N = 3, p < 0.05) amounted to 220.6%; in data set [2] (oral 1 mg/kg, 150 min, N = 3), 158.1%; in data set [2] (oral 1 mg/kg, 165 min, N = 3), 201.9%; in data set [2] (oral 1 mg/kg, 180 min, N = 3, p < 0.05), 188.9%. Also, the “motor action on the gastrointestinal tract” value in data set [2] (intravenous and oral administrations, both during the fasting period and after feeding, vehicle alone no influence) is “showed acceleration on the motor action on the gastrointestinal tract”. The “Residual rate in Stomach” value worked out at 59.2% in data set [3] (subcutaneous 0.03 mg/kg, 5 cases); 50.4% in data set [3] (subcutaneous 0.1 mg/kg, 5 cases); 38.7% in data set [3] (subcutaneous 0.3 mg/kg, 6 cases); 40.0% in data set [3] (subcutaneous 1.0 mg/kg, 6 cases). Further, the “action on gastric emptying” value in data set [3] (subcutaneous administration) is “inhibited dose-dependent accelerating action on gastric emptying”. Also, the LD50 in data set [4] is > 500 mg/kg.

For `COc1cc(N)c(Cl)cc1C(=O)NC1CCN2CCCC1C2` (centres unmarked) [renzapride], in data set [5], the gastrointestinal motor functions result is “accelerate gastrointestinal motor functions”.

On to `COc1cc(N)c(Cl)cc1C(=O)NC1CCN(CCCOc2ccc(F)cc2)CC1OC` (centres unmarked) [Cisapride], for which, in data set [5], the gastrointestinal motor functions entry is “accelerate gastrointestinal motor functions”.

As for `CN1[C@@H]2CC[C@H]1C[C@@H](OC(=O)c1cc3ccccc3[nH]c1=O)C2` [Test Drug 2], the EC50 in data set [1] (setting [6]) is > 3 µM.
